Assay results published in article PMC11855478, “Bicyclic N,S-Acetals Containing Fused Cysteine-Amide System as New Heterocyclic Class Targeting Human Farnesyltransferase (FTase-h)” (International Journal of Molecular Sciences, 2025).

How the values were obtained:
HS 578T (Breast Cancer) = experiment: NCI one dose, HS 578T; assay type: cell-based, human; details: 1.00E-5 Molar one dose
Description: (§1) 3.4. Cell Proliferation Assay
(§2) Selected compounds were tested on a panel of 60 human cancer cell lines at the National Cancer Institute (NCI), Germantown, MD, USA. The cytotoxicity studies were conducted using a 48 h exposure protocol using the sulfo-rhodamine B assay.

OVCAR-3 (Ovarian Cancer) = experiment: NCI one dose, OVCAR-3; assay type: cell-based, human; details: OVCAR-3, 1.00E-5 Molar one dose
Description: as §1, §2

UACC-257 melanoma cells = experiment: NCI one dose, UACC-257; assay type: cell-based, human; details: UACC-257, 1.00E-5 Molar one dose
Description: as §1, §2

K-562 leukaemia cells = experiment: NCI one dose, K-562; assay type: cell-based, human; details: K-562, 1.00E-5 Molar one dose
Description: as §1, §2

IGROV1 (Ovarian Cancer) = experiment: NCI one dose, IGROV1; assay type: cell-based, human; details: IGROV1, 1.00E-5 Molar one dose
Description: as §1, §2

UACC-62 (Melanoma) = experiment: NCI one dose, UACC-62; assay type: cell-based, human; details: UACC-62, 1.00E-5 Molar one dose
Description: as §1, §2

[1] = system: NCI-H23 (Non-Small Cell Lung Cancer); experiment: NCI one dose, NCI-H23; assay type: cell-based, human; details: NCI-H23, 1.00E-5 Molar one dose
Description: as §1, §2

SF-539 (CNS Cancer) = experiment: NCI one dose, SF-539; assay type: cell-based, human; details: SF-539, 1.00E-5 Molar one dose
Description: as §1, §2

OVCAR-5 (Ovarian Cancer) = experiment: NCI one dose, OVCAR-5; assay type: cell-based, human; details: OVCAR-5, 1.00E-5 Molar one dose
Description: as §1, §2

CCRF-CEM (Leukemia) = experiment: NCI one dose, CCRF-CEM; assay type: cell-based, human; details: 1.00E-5 Molar one dose
Description: as §1, §2

OVCAR-4 (Ovarian Cancer) = experiment: NCI one dose, OVCAR-4; assay type: cell-based, human; details: OVCAR-4, 1.00E-5 Molar one dose
Description: as §1, §2

KM12 (Colon Cancer) = experiment: NCI one dose, KM12; assay type: cell-based, human; details: KM12, 1.00E-5 Molar one dose
Description: as §1, §2

CAKI-1 (Renal Cancer) = experiment: NCI one dose, CAKI-1; assay type: cell-based, human; details: CAKI-1, 1.00E-5 Molar one dose
Description: as §1, §2

[2] = system: EKVX (Non-Small Cell Lung Cancer); experiment: NCI one dose, EKVX; assay type: cell-based, human; details: 1.00E-5 Molar one dose
Description: as §1, §2

SN12C (Renal Cancer) = experiment: NCI one dose, SN12C; assay type: cell-based, human; details: 1.00E-5 Molar one dose
Description: as §1, §2

SF-295 (CNS Cancer) = experiment: NCI one dose, SF-295; assay type: cell-based, human; details: SF-295, 1.00E-5 Molar one dose
Description: as §1, §2

[3] = system: NCI-H322M (Non-Small Cell Lung Cancer); experiment: NCI one dose, NCI-H322M; assay type: cell-based, human; details: 1.00E-5 Molar one dose
Description: as §1, §2

BT-549 (Breast Cancer) = experiment: NCI one dose, BT-549; assay type: cell-based, human; details: BT-549, 1.00E-5 Molar one dose
Description: as §1, §2

RPMI-8226 (Leukemia) = experiment: NCI one dose, RPMI-8226; assay type: cell-based, human; details: RPMI-8226, 1.00E-5 Molar one dose
Description: as §1, §2

LOX IMVI (Melanoma) = experiment: NCI one dose, LOX IMVI; assay type: cell-based, human; details: 1.00E-5 Molar one dose
Description: as §1, §2

HCC-2998 (Colon Cancer) = experiment: NCI one dose, HCC-2998; assay type: cell-based, human; details: HCC-2998, 1.00E-5 Molar one dose
Description: as §1, §2

T-47D (Breast Cancer) = experiment: NCI one dose, T-47D; assay type: cell-based, human; details: 1.00E-5 Molar one dose
Description: as §1, §2

COLO 205 (Colon Cancer) = experiment: NCI one dose, COLO 205; assay type: cell-based, human; details: COLO 205, 1.00E-5 Molar one dose
Description: as §1, §2

[4] = system: panel of 60 human cancer cell lines; experiment: NCI 60 cell panel one dose screen (whole panel); assay type: cell-based; set-up: Delta (One Dose Mean Graph): unit not given here; details: 1.00E-5 Molar one dose; for Range (One Dose Mean Graph): in % (unit assumed); for Mean Growth Percent: mean over tested cell lines
Description: as §1
Selected compounds were tested on a panel of 60 human cancer cell lines at the National Cancer Institute (NCI), Germantown, MD, USA. The cytotoxicity studies were conducted using a 48 h exposure protocol using the sulfo-rhodamine B assay. […]
X. NCI One Dose Mean Graph of sulfides 4a(A -J) and 4b(A-J)
The entire series of sulfides regrouping twenty synthesized FTI-candidates (4aA-J, 4bA-J) were selected by the National Cancer Institute (NCI) for evaluation of their antiproliferative activity against 60 cancer cell lines (see the followings twenty pages for full evaluation reports). […]
inhibiting 36% of the NCI-H522 cells. Such difference between IC50 on human FTase in the nanomolar range and IC50 on cancer cell growth in the micromolar range is characteristic to potent FTIs and was reported previously on different series of compounds (see for example ref erence in the references part […]
Of interest, none of the tested compounds at a high single dose (10 µM) in the full NCI 60 cell panel has shown a cytotoxic profile. […]
inhibitory potential on FTase raise good hope for further investigation of these series as agents fighting

A498 (Renal Cancer) = experiment: NCI one dose, A498; assay type: cell-based, human; details: A498, 1.00E-5 Molar one dose
Description: as §1, §2

MALME-3M (Melanoma) = experiment: NCI one dose, MALME-3M; assay type: cell-based, human; details: 1.00E-5 Molar one dose
Description: as §1, §2

ACHN (Renal Cancer) = experiment: NCI one dose, ACHN; assay type: cell-based, human; details: 1.00E-5 Molar one dose
Description: as §1, §2

SF-268 (CNS Cancer) = experiment: NCI one dose, SF-268; assay type: cell-based, human; details: SF-268, 1.00E-5 Molar one dose
Description: as §1, §2

SK-OV-3 (Ovarian Cancer) = experiment: NCI one dose, SK-OV-3; assay type: cell-based, human; details: SK-OV-3, 1.00E-5 Molar one dose
Description: as §1, §2

SNB-19 (CNS Cancer) = experiment: NCI one dose, SNB-19; assay type: cell-based, human; details: SNB-19, 1.00E-5 Molar one dose
Description: as §1, §2

U251 (CNS Cancer) = experiment: NCI one dose, U251; assay type: cell-based, human; details: U251, 1.00E-5 Molar one dose
Description: as §1, §2

SK-MEL-2 (Melanoma) = experiment: NCI one dose, SK-MEL-2; assay type: cell-based, human; details: SK-MEL-2, 1.00E-5 Molar one dose
Description: as §1, §2

RXF 393 (Renal Cancer) = experiment: NCI one dose, RXF 393; assay type: cell-based, human; details: RXF 393, 1.00E-5 Molar one dose
Description: as §1, §2

| Compound | Growth Percent (HS 578T (Breast Cancer)) | Growth Percent (OVCAR-3 (Ovarian Cancer)) | Growth Percent (UACC-257 melanoma cells) | Growth Percent (K-562 leukaemia cells) | Growth Percent (IGROV1 (Ovarian Cancer)) | Growth Percent (UACC-62 (Melanoma)) | Growth Percent [1] | Growth Percent (SF-539 (CNS Cancer)) | Growth Percent (OVCAR-5 (Ovarian Cancer)) | Growth Percent (CCRF-CEM (Leukemia)) | Growth Percent (OVCAR-4 (Ovarian Cancer)) | Growth Percent (KM12 (Colon Cancer)) | Growth Percent (CAKI-1 (Renal Cancer)) | Growth Percent [2] | Growth Percent (SN12C (Renal Cancer)) | Growth Percent (SF-295 (CNS Cancer)) | Growth Percent [3] | Growth Percent (BT-549 (Breast Cancer)) | Growth Percent (RPMI-8226 (Leukemia)) | Growth Percent (LOX IMVI (Melanoma)) | further results |
| --- | --- | --- | --- | --- | --- | --- | --- | --- | --- | --- | --- | --- | --- | --- | --- | --- | --- | --- | --- | --- | --- |
| COc1ccccc1CNC(=O)[C@@H]1CS[C@H]2c3ccccc3C(=O)N12 [4aG] | 96.02% | 109.74% | 74.73% | 81.36% | 109.59% | 103.22% | 106.16% | 103.40% | 112.94% | 101.17% | 106.91% | 105.74% | 94.09% | 106.79% | 110.50% | 100.33% | 100.55% | 110.45% | 102.98% | 99.95% | Growth Percent (HCC-2998 (Colon Cancer)): 120.86%; Growth Percent (T-47D (Breast Cancer)): 98.98%; Growth Percent (COLO 205 (Colon Cancer)): 111.29%; Delta (One Dose Mean Graph) [4]: 31.67; Range (One Dose Mean Graph) [4]: 50.93; Mean Growth Percent [4]: 101.60%; Growth Percent (A498 (Renal Cancer)): 84.76%; Growth Percent (MALME-3M (Melanoma)): 108.91%; Growth Percent (ACHN (Renal Cancer)): 109.98%; Growth Percent (SF-268 (CNS Cancer)): 102.73%; Growth Percent (SK-OV-3 (Ovarian Cancer)): 107.78%; Growth Percent (SNB-19 (CNS Cancer)): 107.13%; Growth Percent (U251 (CNS Cancer)): 99.09%; Growth Percent (SK-MEL-2 (Melanoma)): 96.50%; Growth Percent (RXF 393 (Renal Cancer)): 114.62% |
| COc1ccccc1CNC(=O)[C@@H]1CS[C@@]2(C)c3ccccc3C(=O)N12 [4bG] | 95.65% | 110.44% | 74.15% | 85.09% | 107.94% | 95.39% | 103.28% | 109.96% | 107.74% | 98.16% | 95.75% | 103.74% | 90.92% | 102.57% | 107.44% | 99.22% | 100.27% | 109.63% | 96.98% | 98.70% | Growth Percent (HCC-2998 (Colon Cancer)): 108.79%; Growth Percent (T-47D (Breast Cancer)): 98.35%; Growth Percent (COLO 205 (Colon Cancer)): 105.75%; Delta (One Dose Mean Graph) [4]: 28.52; Range (One Dose Mean Graph) [4]: 40.41; Mean Growth Percent [4]: 98.55%; Growth Percent (A498 (Renal Cancer)): 93.00%; Growth Percent (MALME-3M (Melanoma)): 100.10%; Growth Percent (ACHN (Renal Cancer)): 109.61%; Growth Percent (SF-268 (CNS Cancer)): 105.82%; Growth Percent (SK-OV-3 (Ovarian Cancer)): 99.44%; Growth Percent (SNB-19 (CNS Cancer)): 102.87%; Growth Percent (U251 (CNS Cancer)): 94.53%; Growth Percent (SK-MEL-2 (Melanoma)): 98.59%; Growth Percent (RXF 393 (Renal Cancer)): 105.28% |
| COc1ccc(CNC(=O)[C@@H]2CS[C@H]3c4ccccc4C(=O)N23)cc1OC [4aI] | 98.06% | 116.00% | 75.20% | 84.27% | 109.87% | 98.01% | 92.75% | 102.96% | 102.57% | 94.08% | 111.31% | 107.09% | 95.39% | 114.59% | 100.89% | 101.16% | 101.37% | 108.27% | 99.43% | 99.42% | Growth Percent (HCC-2998 (Colon Cancer)): 105.82%; Growth Percent (T-47D (Breast Cancer)): 85.94%; Growth Percent (COLO 205 (Colon Cancer)): 111.84%; Delta (One Dose Mean Graph) [4]: 34.91; Range (One Dose Mean Graph) [4]: 52.35; Mean Growth Percent [4]: 98.56%; Growth Percent (A498 (Renal Cancer)): 89.23%; Growth Percent (MALME-3M (Melanoma)): 102.18%; Growth Percent (ACHN (Renal Cancer)): 105.56%; Growth Percent (SF-268 (CNS Cancer)): 104.77%; Growth Percent (SK-OV-3 (Ovarian Cancer)): 104.05%; Growth Percent (SNB-19 (CNS Cancer)): 104.62%; Growth Percent (U251 (CNS Cancer)): 93.84%; Growth Percent (SK-MEL-2 (Melanoma)): 80.08%; Growth Percent (RXF 393 (Renal Cancer)): 110.33% |
| C[C@@]12SC[C@@H](C(=O)NCc3ccc(Cl)cc3Cl)N1C(=O)c1ccccc12 [4bH] | 91.90% | 101.07% | 79.49% | 79.34% | 100.21% | 81.85% | 94.51% | 100.42% | 99.53% | 84.65% | 93.22% | 101.11% | 86.12% | 112.50% | 97.63% | 98.60% | 92.74% | 107.71% | 86.31% | 101.94% | Growth Percent (HCC-2998 (Colon Cancer)): 99.28%; Growth Percent (T-47D (Breast Cancer)): 79.65%; Growth Percent (COLO 205 (Colon Cancer)): 109.32%; Delta (One Dose Mean Graph) [4]: 23.83; Range (One Dose Mean Graph) [4]: 40.77; Mean Growth Percent [4]: 95.56%; Growth Percent (A498 (Renal Cancer)): 77.10%; Growth Percent (MALME-3M (Melanoma)): 108.23%; Growth Percent (ACHN (Renal Cancer)): 106.47%; Growth Percent (SF-268 (CNS Cancer)): 99.59%; Growth Percent (SK-OV-3 (Ovarian Cancer)): 99.25%; Growth Percent (SNB-19 (CNS Cancer)): 100.91%; Growth Percent (U251 (CNS Cancer)): 90.46%; Growth Percent (SK-MEL-2 (Melanoma)): 92.79%; Growth Percent (RXF 393 (Renal Cancer)): 102.82% |
